One experiment relates to Crl: CD (SD) male rats. The experiment in a line: Evaluation of antidepressant effect (forced swimming, duration of immobility). It counts as in vivo. An excerpt:
(§1) Meanwhile, there are no reports about animal models which provide a good clinical prediction to evaluate the improving efficacy for bipolar disorder. However, bipolar disorder comprises “manic state” and “depressive state”, and some animals are reported to be useful as a model to evaluate the improvement of each pathological condition individually. In general, an index of manic state is excessive hyperactivity induced by administering methamphetamine and chlordiazepoxide in combination, and that of depressive state is immobility induced by forced swimming.
Test 6: Evaluation of Antidepressant Effect
Test 6 is a typical test to evaluate the antidepressant activity of medicaments (Porsolt et al., Nature, 266: 730-732, 1977, Porsolt et al., Eur. J. Pharmacol., 47: 379-391, 1978). Crl: CD (SD) male rats (12 rats in each group, body weight 200-250 g) were forced to swim for 15 minutes in a water pool with 200 mm diameter. In the pool, water was filled up to a depth of 205 mm from the bottom of the pool, and thus the rats could not touch the bottom of the pool with their hind limbs. Fifteen minutes after the completion of the forced swimming, test compounds were orally administered to the rats. On the next day, the test compounds were administered to the rats at the same dose as the previous day, and the rats were put in the pool for 5 minutes at the same clock time as the previous day. […] The antidepressant effect was evaluated by calculating how long the duration of immobility was shortened against the control. To the control, 0.5% methylcellulose solution was administered.

Experiment [1] has as its system subcutaneously pentetrazol-injected model (scPTZ). Kind of experiment: Subcutaneously pentetrazol-injected model (scPTZ) test. It counts as in vivo, mice. The following applies: pentetrazol 85 mg/kg s.c. after 1 hour. The procedure, abridged: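 Pentetrazol (85 mg/kg, s.c.) was injected one hour after oral test compound at 50 or 100 mg/kg in groups of three male Slc:ddY mice weighing 20-30 g; vehicle controls got 0.5% tragacanth or 0.5% methylcellulose.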

Experiment [2] has as its system maximum electroshock seizure (MES) model. Kind of experiment: Maximum electroshock seizure (MES) model test. It counts as in vivo, mice. The gist of the method:
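Tonic hind-limb extension was elicited by corneal electroshock (60 Hz, 25 mA, 0.2 s) 1 h after oral dosing. Test compounds were given at 50 or 100 mg/kg to groups of 3 male Slc: ddY mice (20-30 g), vehicle controls receiving 0.5% tragacanth or 0.5% methylcellulose solution.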

A further experiment deals with Slc: C57BL/6J male mice. Kind of experiment: Evaluation of antimanic effect (methamphetamine and chlordiazepoxide induced hyperactivity, locomotor distance). It counts as in vivo. To be noted: methamphetamine 4 mg/kg and chlordiazepoxide 10 mg/kg i.p.
Description: as §1
Test 7: Evaluation of Antimanic Effect
Test 7 evaluates the antimanic effect of medicaments. The evaluation system is a test system whose utility has been already confirmed with a known antimanic agent which is clinically used as a mood-stabilizing drug, not as a drug for treating schizophrenia (Arban et al., Behay. Brain Res., 158:123-132, 2005, Foreman et al., Pharmacol. Biochem. Behay., 89: 523-534, 2008). Test compounds were orally administered to Slc: C57BL/6J male mice (8 mice in each group, body weight 20-26 g). After 30 minutes of administration, methamphetamine (4 mg/kg) and chlordiazepoxide (10 mg/kg) were administered intraperitoneally. Then, the mice were allowed to move freely in an acrylic cage (W 360 mm×D 230 mm×H 310 mm) for 90 minutes. The locomotor distances of the mice were measured with Ethovision software (Ver. 3.1). Among the 90 minutes, the result of the latter 60 minutes with the exception of the first 30 minute's result for adaptation to the new environment was used as data of the locomotor distance. The antimanic effect was evaluated by calculating how long locomotor distance was shortened against the control. To the control mice, 0.5% methylcellulose solution was administered.

Experiment [3] concerns 6 Hz psychomotor seizure model. Kind of experiment: 6 Hz psychomotor seizure model. It counts as in vivo, mice. To be noted: mice, oral. The gist of the method:
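Anticonvulsant activity was tested in the 6 Hz psychomotor seizure model in mice, a model reflecting seizures resistant to current antiepileptic drugs. 30 minutes or an hour after dosing, corneal electrical stimulation (6 Hz, 32 mA, 3 seconds) was applied to provoke forelimb myoclonus, Straub tail and immobility. Control mice received 0.5% tragacanth solution, 0.5% methylcellulose solution or olive oil.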

In the case of `NC(=O)Cc1ccccc1-c1ccccc1Cl` [Example 16, 2-(2′-chlorobiphenyl-2-yl)acetamide], the results for the “The rate of the shortened duration of immobility (% control)” value in the experiment with Crl: CD (SD) male rats (10 mg/kg oral) and with Crl: CD (SD) male rats (30 mg/kg oral) were 19.9 % control and 21.9 % control, respectively. Also, the responders at 50 mg/kg in experiment [1] (Mus musculus, po, 1 h, 50 mg/kg oral, Slc: ddY male mice, 3 per group, observed 30 minutes for clonic convulsion, read-out: scPTZ (positive number/tested number) (converted)) is 66.7%; in experiment [2] (Mus musculus, po, 1 h, 50 mg/kg oral, Slc: ddY male mice, 3 per group, electrical stimulation 1 hour after administration, inhibition of hind limb extension, read-out: MES (positive number/tested number) (converted)), 100%. For the same compound, the responders at 100 mg/kg is 100% in experiment [1] (Mus musculus, po, 1 h, 100 mg/kg oral, Slc: ddY male mice, 3 per group, observed 30 minutes for clonic convulsion, read-out: scPTZ (positive number/tested number) (converted)) and 100% in experiment [2] (Mus musculus, po, 1 h, 100 mg/kg oral, Slc: ddY male mice, 3 per group, electrical stimulation 1 hour after administration, inhibition of hind limb extension, read-out: MES (positive number/tested number) (converted)). In experiment [1] (mice, oral 50 or 100 mg/kg), the “anticonvulsant action in subcutaneously pentetrazol-injected model (scPTZ) test” value is listed as “anticonvulsant action was observed”. The “anticonvulsant action in maximum electroshock seizure (MES) model test” value in experiment [2] (mice, oral 50 or 100 mg/kg, 1 hour after administration) is “anticonvulsant action was observed”. For the same compound, the “The rate of the shortened locomotor-distance (% control)” value turned out to be 45.7 % control with Slc: C57BL/6J male mice (30 mg/kg oral), 69.1 % control in the experiment with Slc: C57BL/6J male mice (60 mg/kg oral) and 84.9 % control in the experiment with Slc: C57BL/6J male mice (100 mg/kg oral). Besides, in experiment [3] (Mus musculus, 6 Hz psychomotor seizure model, read-out: ED50), the 50% effective dose (ED50) was 38.1 mg/kg. Besides, the “6 Hz (Positive number/tested number)” value in experiment [3] (dose 50 mg, 30 minutes or 1 hour after administration) was 8/10/50.

Values taken from patent publication US20120142771A1, “BIPHENYLACETAMIDE DERIVATIVE” (Dainippon Sumitomo Pharma Co., Ltd., priority 2008, published 2012).
